According to US20070066483A1, “Plant Nourishing” (priority 2004, published 2007):

Test system: carnations
Assay: Preservation of cut carnations in vases of distilled water with one additive each
Type: in vivo
Details: one cut carnation per vase, one teaspoon of additive in 1 cup distilled water; for order in which the flowers collapsed: collapsed = flower fell to a side of the stem
Protocol: The materials in the experiment used included seven vases; one cutting knife; one teaspoon each of lemon-lime soda, sugar, aspirin, house bleach, vitamins, a sports drink, including citric acid, potassium, sodium, sugar and water, eight cups of warm distilled water, and seven fresh carnations Each of the seven vases were filled with 1 cup of distilled water. One teaspoon of each additive was added to its own separate vase of distilled water. One vase only contained distilled water because it was used as the control group. Each carnation was cut on the end at a slant. […] Referring to FIG. 3, the conditions of each flower were recorded after every 24-hour period on a scale from “1” to “10.” Scores between “7” to “10” are “good,” scores between “4” to “6” are “fair,” and scores between “0” to “3” are poor. […] A flower was “collapsed” when it decayed to a point where the flower 14 fell to a side of the stem 18. Aspirin is recommended to preserve flowers by many florists because it lowers the PH level of water, making it more acidic. Acid helps water move more easily up the tubes in a flower's stem 18. However, some florists argue that aspirin can damage flowers, which this experiment supported. Bleach was used in the experiment because bleach kills bacteria, which is harmful to flowers. However, the bleach and water solution only preserved its flower for ten out of nineteen days. […] The carnation with vitamins and water solution may have collapsed because of bacteria growth that developed in the vase. The control group (water only) preserved its carnation for an average length of thirteen days. […] All three solutions contained sugar, a vital substance needed by plants to carry out photosynthesis. The flower with the lemon lime soda lasted for sixteen days, and the flower with sugar lasted for eighteen days. The sports drink and water was the solution that preserved its flower the longest, approximately twenty-nine days.

Row | Molecule | order in which the flowers collapsed | time the flower was preserved (until collapse) (condition recorded every 24 hours)
1 | sugar | last three flowers to remain fresh | eighteen
2 | CC(=O)Oc1ccccc1C(=O)O [aspirin] | first flowers to collapse | –
